Reference: patent US6992079B2, “Substituted 11-phenyl-dibenzazepine compounds useful for the treatment or prevention of diseases characterized by abnormal cell proliferation” (President Fellows of Harvard College, priority 1997, dated 2006)
Read-outs that look alike come from different tables or passages of the source.

Columns and labels:
[1] = tested on: H460 large cell lung carcinoma; experiment: Mouse xenograft tumor growth; type: in vivo, CD-1 nude mice
CCRF-CEM = experiment: In-Vitro Testing SRB panel: Leukemia; type: cell-based
MOLT-4 = experiment: In-Vitro Testing SRB panel: Leukemia; type: cell-based; conditions: MOLT-4
A549/ATCC = type: cell-based
NCI-H460 = type: cell-based; conditions: NCI-H460
NCI-H522 = type: cell-based; conditions: NCI-H522
HCT-15 = experiment: In-Vitro Testing SRB panel: Colon Cancer; type: cell-based; conditions: HCT-15
SW-620 = experiment: In-Vitro Testing SRB panel: Colon Cancer; type: cell-based; conditions: SW-620
MALM-3M = experiment: In-Vitro Testing SRB panel: Melanoma; type: cell-based; conditions: MALM-3M
SK-MEL-2B = experiment: In-Vitro Testing SRB panel: Melanoma; type: cell-based
OVCAR-4 = experiment: In-Vitro Testing SRB panel: Ovarian Cancer; type: cell-based; conditions: OVCAR-4
OVCAR-5 = experiment: In-Vitro Testing SRB panel: Ovarian Cancer; type: cell-based; conditions: OVCAR-5
OVCAR-8 = experiment: In-Vitro Testing SRB panel: Ovarian Cancer; type: cell-based; conditions: OVCAR-8
SN12C = experiment: In-Vitro Testing SRB panel: Renal Cancer; type: cell-based
TK-10 = experiment: In-Vitro Testing SRB panel: Renal Cancer; type: cell-based; conditions: TK-10
DU-145 = experiment: In-Vitro Testing SRB panel: Prostate Cancer; type: cell-based; conditions: DU-145
HS 578T = experiment: In-Vitro Testing SRB panel: Breast Cancer; type: cell-based
MDA-N = experiment: In-Vitro Testing SRB panel: Breast Cancer; type: cell-based
[2] = Homo sapiens, read-out: LC50 (the source's name)

Compound: COc1cccc2c1C(c1ccccc1Cl)c1cc(Cl)ccc1N(C(=O)c1ccc([N+](=O)[O-])cc1)C2 (stereo not shown) [Compound 31]
- tumor growth [1]: showed inhibition of tumor growth
- TGI (CCRF-CEM): >1.00E−04 Molar
- GI50 (CCRF-CEM; Homo sapiens): 1.53 µM
- CC50 (CCRF-CEM; [2]): > 100 µM
- Percent Growth (CCRF-CEM; log10 conc -4 Molar): 2%
- Percent Growth (CCRF-CEM; log10 conc -5 Molar): 21%
- Percent Growth (CCRF-CEM; log10 conc -6 Molar): 56%
- Percent Growth (CCRF-CEM; log10 conc -7 Molar): 94%
- Percent Growth (CCRF-CEM; log10 conc -8 Molar): 111%
- GI50 (MOLT-4; Homo sapiens): 0.336 µM
- CC50 (MOLT-4; [2]): > 100 µM
- TGI (MOLT-4): >1.00E−04 Molar
- Percent Growth (MOLT-4; log10 conc -4 Molar): 6%
- Percent Growth (MOLT-4; log10 conc -5 Molar): 14%
- Percent Growth (MOLT-4; log10 conc -6 Molar): 24%
- Percent Growth (MOLT-4; log10 conc -7 Molar): 79%
- Percent Growth (MOLT-4; log10 conc -8 Molar): 95%
- TGI (A549/ATCC; A549/ATCC): >1.00E−04 Molar
- Percent Growth (A549/ATCC; A549/ATCC, log10 conc -4 Molar): 3%
- Percent Growth (A549/ATCC; A549/ATCC, log10 conc -5 Molar): 11%
- Percent Growth (A549/ATCC; A549/ATCC, log10 conc -6 Molar): 61%
- Percent Growth (A549/ATCC; A549/ATCC, log10 conc -7 Molar): 98%
- Percent Growth (A549/ATCC; A549/ATCC, log10 conc -8 Molar): 94%
- GI50 (A549/ATCC; Homo sapiens, A549): 1.67 µM
- CC50 (A549/ATCC; Homo sapiens, A549/ATCC, read-out: LC50 (the source's name)): > 100 µM
- GI50 (NCI-H460; Homo sapiens): 0.595 µM
- CC50 (NCI-H460; [2]): > 100 µM
- TGI (NCI-H460): 2.81E−05 Molar
- Percent Growth (NCI-H460; log10 conc -4 Molar): −16%
- Percent Growth (NCI-H460; log10 conc -5 Molar): 10%
- Percent Growth (NCI-H460; log10 conc -6 Molar): 36%
- Percent Growth (NCI-H460; log10 conc -7 Molar): 99%
- Percent Growth (NCI-H460; log10 conc -8 Molar): 96%
- GI50 (NCI-H522; Homo sapiens): 7.48 µM
- CC50 (NCI-H522; [2]): > 100 µM
- TGI (NCI-H522): >1.00E−04 Molar
- Percent Growth (NCI-H522; log10 conc -4 Molar): 36%
- Percent Growth (NCI-H522; log10 conc -5 Molar): 44%
- Percent Growth (NCI-H522; log10 conc -6 Molar): 89%
- Percent Growth (NCI-H522; log10 conc -7 Molar): 88%
- Percent Growth (NCI-H522; log10 conc -8 Molar): 99%
- TGI (HCT-15): >1.00E−04 Molar
- Percent Growth (HCT-15; log10 conc -4 Molar): 15%
- Percent Growth (HCT-15; log10 conc -5 Molar): 20%
- Percent Growth (HCT-15; log10 conc -6 Molar): 34%
- Percent Growth (HCT-15; log10 conc -7 Molar): 79%
- Percent Growth (HCT-15; log10 conc -8 Molar): 96%
- GI50 (HCT-15; Homo sapiens): 0.444 µM
- CC50 (HCT-15; [2]): > 100 µM
- GI50 (SW-620; Homo sapiens): 2 µM
- CC50 (SW-620; [2]): > 100 µM
- TGI (SW-620): >1.00E−04 Molar
- Percent Growth (SW-620; log10 conc -4 Molar): 27%
- Percent Growth (SW-620; log10 conc -5 Molar): 34%
- Percent Growth (SW-620; log10 conc -6 Molar): 57%
- Percent Growth (SW-620; log10 conc -7 Molar): 94%
- Percent Growth (SW-620; log10 conc -8 Molar): 105%
- CC50 (MALM-3M; [2]): > 100 µM
- TGI (MALM-3M): >1.00E−04 Molar
- Percent Growth (MALM-3M; log10 conc -4 Molar): 97%
- Percent Growth (MALM-3M; log10 conc -5 Molar): 96%
- Percent Growth (MALM-3M; log10 conc -6 Molar): 42%
- Percent Growth (MALM-3M; log10 conc -7 Molar): 123%
- Percent Growth (MALM-3M; log10 conc -8 Molar): 117%
- GI50 (SK-MEL-2B; Homo sapiens): 7.47 µM
- CC50 (SK-MEL-2B; Homo sapiens, SK-MEL-2B, read-out: LC50 (the source's name)): > 100 µM
- TGI (SK-MEL-2B; SK-MEL-2B): >1.00E−04 Molar
- Percent Growth (SK-MEL-2B; SK-MEL-2B, log10 conc -4 Molar): 31%
- Percent Growth (SK-MEL-2B; SK-MEL-2B, log10 conc -5 Molar): 48%
- Percent Growth (SK-MEL-2B; SK-MEL-2B, log10 conc -6 Molar): 62%
- Percent Growth (SK-MEL-2B; SK-MEL-2B, log10 conc -7 Molar): 87%
- Percent Growth (SK-MEL-2B; SK-MEL-2B, log10 conc -8 Molar): 92%
- GI50 (OVCAR-4; Homo sapiens): 1.83 µM
- CC50 (OVCAR-4; [2]): > 100 µM
- TGI (OVCAR-4): 8.34E−05 Molar
- Percent Growth (OVCAR-4; log10 conc -4 Molar): −1%
- Percent Growth (OVCAR-4; log10 conc -5 Molar): 16%
- Percent Growth (OVCAR-4; log10 conc -6 Molar): 62%
- Percent Growth (OVCAR-4; log10 conc -7 Molar): 83%
- Percent Growth (OVCAR-4; log10 conc -8 Molar): 91%
- GI50 (OVCAR-5; Homo sapiens): 91.7 µM
- CC50 (OVCAR-5; [2]): > 100 µM
- TGI (OVCAR-5): >1.00E−04 Molar
- Percent Growth (OVCAR-5; log10 conc -4 Molar): 49%
- Percent Growth (OVCAR-5; log10 conc -5 Molar): 70%
- Percent Growth (OVCAR-5; log10 conc -6 Molar): 82%
- Percent Growth (OVCAR-5; log10 conc -7 Molar): 102%
- Percent Growth (OVCAR-5; log10 conc -8 Molar): 101%
- GI50 (OVCAR-8; Homo sapiens): 5.3 µM
- CC50 (OVCAR-8; [2]): > 100 µM
- TGI (OVCAR-8): >1.00E−04 Molar
- Percent Growth (OVCAR-8; log10 conc -4 Molar): 29%
- Percent Growth (OVCAR-8; log10 conc -5 Molar): 38%
- Percent Growth (OVCAR-8; log10 conc -6 Molar): 82%
- Percent Growth (OVCAR-8; log10 conc -7 Molar): 94%
- Percent Growth (OVCAR-8; log10 conc -8 Molar): 99%
- TGI (SN12C): >1.00E−04 Molar
- GI50 (SN12C; Homo sapiens): 6.93 µM
- CC50 (SN12C; [2]): > 100 µM
- Percent Growth (SN12C; log10 conc -4 Molar): 30%
- Percent Growth (SN12C; log10 conc -5 Molar): 43%
- Percent Growth (SN12C; log10 conc -6 Molar): 85%
- Percent Growth (SN12C; log10 conc -7 Molar): 101%
- Percent Growth (SN12C; log10 conc -8 Molar): 94%
- GI50 (TK-10; Homo sapiens): 16.9 µM
- CC50 (TK-10; [2]): > 100 µM
- TGI (TK-10): >1.00E−04 Molar
- Percent Growth (TK-10; log10 conc -4 Molar): 34%
- Percent Growth (TK-10; log10 conc -5 Molar): 55%
- Percent Growth (TK-10; log10 conc -6 Molar): 85%
- Percent Growth (TK-10; log10 conc -7 Molar): 105%
- Percent Growth (TK-10; log10 conc -8 Molar): 102%
- TGI (DU-145): >1.00E−04 Molar
- Percent Growth (DU-145; log10 conc -4 Molar): 26%
- Percent Growth (DU-145; log10 conc -5 Molar): 43%
- Percent Growth (DU-145; log10 conc -6 Molar): 84%
- Percent Growth (DU-145; log10 conc -7 Molar): 105%
- Percent Growth (DU-145; log10 conc -8 Molar): 105%
- GI50 (DU-145; Homo sapiens): 6.84 µM
- CC50 (DU-145; [2]): > 100 µM
- TGI (HS 578T; HS 578T): >1.00E−04 Molar
- Percent Growth (HS 578T; HS 578T, log10 conc -4 Molar): 17%
- Percent Growth (HS 578T; HS 578T, log10 conc -5 Molar): 31%
- Percent Growth (HS 578T; HS 578T, log10 conc -6 Molar): 49%
- Percent Growth (HS 578T; HS 578T, log10 conc -7 Molar): 74%
- Percent Growth (HS 578T; HS 578T, log10 conc -8 Molar): 90%
- GI50 (HS 578T; Homo sapiens, Hs-578T): 0.913 µM
- CC50 (HS 578T; Homo sapiens, HS 578T, read-out: LC50 (the source's name)): > 100 µM
- TGI (MDA-N): >1.00E−04 Molar
- GI50 (MDA-N; Homo sapiens): 1.97 µM
- CC50 (MDA-N; [2]): > 100 µM
- Percent Growth (MDA-N; log10 conc -4 Molar): 22%
- Percent Growth (MDA-N; log10 conc -5 Molar): 33%
- Percent Growth (MDA-N; log10 conc -6 Molar): 57%
- Percent Growth (MDA-N; log10 conc -7 Molar): 90%
- Percent Growth (MDA-N; log10 conc -8 Molar): 96%
